Data on two substances can be found in patent publication US20080161245A1, “Protein-Binding Anthracycline Peptide Derivatives and Drugs Containing Them” (KTB Tumorforschungsgesellschaft mbH, priority 2005, published 2008).

For one series, the system named is CWR22 tissue homogenate. The experiment in a line: Cleavage study of the doxorubicin dipeptide with CWR22 tissue homogenate (HPLC). The class given is in vitro ADME. The note with it: pH 7.4, 37° C., anthracycline 100 μM, 5 minutes, 6 hours, 20 hours, FIG. 2. As to the method:
FIG. 2 is chromatogram of a cleavage study of the doxorubicin-dipeptide Doxo-Arg-Ser with PSA-positive prostate carcinoma CWR22. Chromatogram of an incubation study of the cleaved doxorubicin-dipeptide [Doxo-Arg-Ser] with CWR22 homogenate recorded at 37° C. after 0 hours, 6 hours, and 20 hours. The concentration of anthracycline was […]. HPLC conditions: see FIG. 1. The CWR22 homogenate (250 mg/l mL) was produced by homogenization of CWR22 xenograft tumors in 50 mM tris-HCl buffer at pH 7.4 containing 1 mM monothioglycerol.
An incubation study at 37° C. with CWR22 tissue homogenate at pH 7.4 was conducted with the doxorubicin dipeptide (Doxo-Arg-Ser) obtained as described in Example 2. The concentration of anthracycline was 100 μM. HPLC chromatography was conducted under the conditions of Example 2 after 5 minutes, 6 hours, and 20 hours.

For series [1], the system named is PSA-positive xenograft model CWR22. Nature of the series: In-vivo activity in the PSA-positive xenograft model (CWR22). Further details: species or system hairless mice. As to the method: The course of the tumor growth of the subcutaneously growing PSA-positive xenograft model CWR22, which was treated with structure 3 [dose (i.v.): 2×13.3 μmol/kg (=2×8 mg/kg doxorubicin equivalents) on days 13 and 20; 3×39.9 μmol/kg (=3×24 mg/kg doxorubicin equivalents) on days 13, 20, and 27; and 3×59.9 μmol/kg (=3×36 mg/kg doxorubicin equivalents) on days 13, 20, and 27] is shown in FIG. 6.
Animals: hairless mice. Stock solution of compound 3:6.0 mg/mL in 10 mM sodium phosphate, 5% D-glucose (pH 6.4); control (buffer): glucose-phosphate buffer (10 mM sodium phosphate, 5% D-glucose—pH 6.4) on days 13 and 20.
The course of the tumor growth of the subcutaneously growing PSA-positive xenograft model CWR22, which was treated with structure 1 [dose (i.v.): 2×13.3 μmol/kg (=2×8 mg/kg doxorubicin equivalents) on days 13 and 20; 3×26.3 μmol/kg (=3×16 mg/kg doxorubicin equivalents) or with buffer (control) on days 13 and 20], is shown in FIG. 7.
Animals: hairless mice. Stock solution of compound 1:7.4 mg/mL in 10 mM sodium phosphate, 5% D-glucose (pH 6.4); control (buffer): glucose-phosphate buffer (10 mM sodium phosphate, 5% D-glucose—pH 6.4) on days 13 and 20.

The target of series [2] is T1, cysteine-34 position of endogenous albumin (Homo sapiens, UniProt P02768).
T1 construct: cysteine-34 position of endogenous albumin in blood plasma; from tissue; host or cells: human blood plasma
The experiment in a line: Incubation study with human plasma (binding to albumin, HPLC). The note with it: 37° C., 100 μM, after 5 and 90 minutes, FIG. 4. As to the method: FIG. 4 is chromatogram of an incubation study of compound 3 with human plasma at 37° C. after 5 and 90 minutes. Chromatogram of an incubation study of compound 3 with human plasma at 37° C. after 5 and 90 minutes. The concentration of the anthracycline was 100 μM. HPLC chromatography conditions: see FIG. 3.

*: point of attachment. Hexanoyl(6-maleimido) = O=C1C=CC(=O)N1CCCCCC(=O)*

As to Doxo-Arg-Ser, the “cleavage in tumor tissue homogenate” value with CWR22 tissue homogenate is given as “cleaved to doxorubicin in tumor tissue”.
Consider “EMC-Arg-Arg-Ser-Ser-Tyr-Tyr-Ser-Gly-Doxo ({Hexanoyl(6-maleimido)}-RRSSYYSG-doxorubicin) [compound 3]”, for which the “antitumoral effect (relative tumor volume)” value in series [1] (i.v. 2×13.3 μmol/kg on days 13 and 20, 3×26.3 μmol/kg, subcutaneous CWR22, FIG. 7) is listed as “good antitumoral effect”; in series [1] (i.v. 2×13.3, 3×39.9 and 3×59.9 μmol/kg on days 13, 20 (27), subcutaneous CWR22, FIG. 6), “good antitumoral effect”. The “binding to albumin in blood plasma” value in series [2] is listed as “binds selectively within a few minutes”.
